From patent US8293909B2, “Compounds for the treatment of hepatitis C” (Bristol-Myers Squibb Company, priority 2008, dated 2012)

Tests used:
[1] = target: T1, HCV NS5B RdRp genotype 1b (Hepatitis C virus genotype 1b, UniProt Q9WMX2); test: HCV NS5B RdRp enzyme assay (standard / modified); assay type: biochemical; conditions: HCV NS5B genotype 1b
T1 construct: The protein was expressed with an 18 amino acid C-terminal truncation to enhance the solubility; made in house; host or cells: E. coli BL21(DE3), pET21a vector
T1 sequence (Q9WMX2 2420-2992): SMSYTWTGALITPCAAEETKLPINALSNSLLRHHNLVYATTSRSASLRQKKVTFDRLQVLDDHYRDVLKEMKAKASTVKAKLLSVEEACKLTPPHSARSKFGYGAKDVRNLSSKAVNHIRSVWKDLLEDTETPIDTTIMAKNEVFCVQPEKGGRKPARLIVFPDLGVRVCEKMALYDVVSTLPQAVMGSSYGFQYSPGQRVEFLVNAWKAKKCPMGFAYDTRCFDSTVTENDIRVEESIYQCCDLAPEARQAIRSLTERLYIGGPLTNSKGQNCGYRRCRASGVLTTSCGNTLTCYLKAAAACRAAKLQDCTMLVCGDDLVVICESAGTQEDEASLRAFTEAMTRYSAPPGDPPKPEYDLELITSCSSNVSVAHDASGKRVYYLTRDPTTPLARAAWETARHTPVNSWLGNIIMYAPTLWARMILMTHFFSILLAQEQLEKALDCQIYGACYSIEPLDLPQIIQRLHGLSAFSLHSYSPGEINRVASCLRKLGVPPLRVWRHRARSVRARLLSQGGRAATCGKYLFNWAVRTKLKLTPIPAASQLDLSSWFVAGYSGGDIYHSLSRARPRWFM
Description: HCV NS5B RdRp cloning, expression, and purification. The cDNA encoding the NS5B protein of HCV, genotype 1b, was cloned into the pET21a expression vector. The protein was expressed with an 18 amino acid C-terminal truncation to enhance the solubility. The E. coli competent cell line BL21(DE3) was used for expression of the protein. Cultures were grown at 37° C. for ˜4 hours until the cultures reached an optical density of 2.0 at 600 nm. The cultures were cooled to 20° C. and induced with 1 mM IPTG. Fresh ampicillin was added to a final concentration of 50 μg/ml and the cells were grown overnight at 20° C.
Cell pellets (3 L) were lysed for purification to yield 15-24 mgs of purified NS5B. The lysis buffer consisted of 20 mM Tris-HCl, pH 7.4, 500 mM NaCl, 0.5% triton X-100, 1 mM DTT, 1 mM EDTA, 20% glycerol, 0.5 mg/ml lysozyme, 10 mM MgCl2, 15 ug/ml deoxyribonuclease I, and Complete™ protease inhibitor tablets (Roche). After addition of the lysis buffer, frozen cell pellets were resuspended using a tissue homogenizer. To reduce the viscosity of the sample, aliquots of the lysate were sonicated on ice using a microtip attached to a Branson sonicator. The sonicated lysate was centrifuged at 100,000×g for 1 hr at 4° C. and filtered through a 0.2 μm filter unit (Corning).
The protein was purified using three sequential chromatography steps: Heparin sepharose CL-6B, polyU sepharose 4B, and Hitrap SP sepharose (Pharmacia). The chromatography buffers were identical to the lysis buffer but contained no lysozyme, deoxyribonuclease I, MgCl2 or protease inhibitor and the NaCl concentration of the buffer was adjusted according to the requirements for charging the protein onto the column. Each column was eluted with a NaCl gradient which varied in length from 5-50 column volumes depending on the column type. After the final chromatography step, the resulting purity of the enzyme is >90% based on SDS-PAGE analysis. The enzyme was aliquoted and stored at −80° C.
Standard HCV NS5B RdRp enzyme assay. HCV RdRp genotype 1b assays were run in a final volume of 60 μl in 96 well plates (Costar 3912). The assay buffer is composed of 20 mM Hepes, pH 7.5, 2.5 mM KCl, 2.5 mM MgCl2, 1 mM DTT, 1.6 U RNAse inhibitor (Promega N2515), 0.1 mg/ml BSA (Promega R3961), and 2% glycerol. All compounds were serially diluted (3-fold) in DMSO and diluted further in water such that the final concentration of DMSO in the assay was 2%. HCV RdRp genotype 1b enzyme was used at a final concentration of 28 nM. A polyA template was used at 6 nM, and a biotinylated oligo-dT12 primer was used at 180 nM final concentration. Template was obtained commercially (Amersham 27-4110). Biotinylated primer was prepared by Sigma Genosys. 3H-UTP was used at 0.6 μCi (0.29 μM total UTP). Reactions were initiated by the addition of enzyme, incubated at 30° C. for 60 min, and stopped by adding 25 μl of 50 mM EDTA containing SPA beads (4 μg/μl, Amersham RPNQ 0007). Plates were read on a Packard Top Count NXT after >1 hr incubation at room temperature.
Modified HCV NS5B RdRp enzyme assay. A modified enzyme assay was performed essentially as described for the standard enzyme assay except for the following: The biotinylated oligo dT12 primer was precaptured on streptavidin-coated SPA beads by mixing primer and beads in assay buffer and incubating at room temperature for one hour. Unbound primer was removed after centrifugation. The primer-bound beads were resuspended in 20 mM Hepes buffer, pH 7.5 and used in the assay at final concentrations of 20 nM primer and 0.67 μg/μl beads. Order of addition in the assay: enzyme (14 nM) was added to diluted compound followed by the addition of a mixture of template (0.2 nM), 3H-UTP (0.6 μCi, 0.29 μM), and primer-bound beads, to initiate the reaction; concentrations given are final. Reactions were allowed to proceed for 4 hours at 30° C.
IC50 values for compounds were determined using seven different [I]. […]

HCV replicon cells = test: HCV replicon assay (FRET or luciferase readout); assay type: cell-based; conditions: Hepatitis C virus
From the text: FRET Assay Preparation. To perform the HCV FRET screening assay, 96-well cell culture plates were used. The FRET peptide (Anaspec, Inc.) (Taliani et al., Anal. Biochem. 1996, 240, 60-67) contains a fluorescence donor, EDANS, near one end of the peptide and an acceptor, DABCYL, near the other end. The fluorescence of the peptide is quenched by […] resonance energy transfer (RET) between the donor and the acceptor, but as the NS3 protease cleaves the peptide the products are released from RET quenching and the fluorescence of the donor becomes apparent. The assay reagent was made as follows: 5× cell Luciferase cell culture lysis reagent from Promega (#E153A) diluted to 1× with dH2O, NaCl added to 150 mM final, the FRET peptide diluted to 20 μM final from a 2 mM stock.
To prepare plates, HCV replicon cells, with or without a Renilla luciferase reporter gene, were trypsinized and placed into each well of a 96-well plate with titrated test compounds added in columns 3 through 12; columns 1 and 2 contained a control compound (HCV protease inhibitor), and the bottom row contained cells without compound. The plates were then placed in a CO2 incubator at 37° C.
Assays. Subsequent to addition of the test compounds described above (FRET Assay Preparation), at various times the plate was removed and Alamar blue solution (Trek Diagnostics, #00-100) was added per well as a measure of cellular toxicity. After reading in a Cytoflour 4000 instrument (PE Biosystems), plates were rinsed with PBS and then used for FRET assay by the addition of 30 ul of the FRET peptide assay reagent described above (FRET Assay Preparation) per well. The plate was then placed into the Cytoflour 4000 instrument which had been set to 340 excite/490 emission, automatic mode for 20 cycles and the plate read in a kinetic mode. Typically, the signal to noise using an endpoint analysis after the reads was at least three-fold. Alternatively, after Alamar blue reading, plates were rinsed with PBS, 50 ul of DMEM (high glucose) without phenol red was added and plates were then used for luciferase assay using the Promega Dual-Glo Luciferase Assay System.
Compound analysis was determined by quantification of the relative HCV replicon inhibition and the relative cytotoxicity values. To calculate cytoxicity values, the average Alamar Blue fluorescence signals from the control wells were set as 100% non-toxic. The individual signals in each of the compound test wells were then divided by the average control signal and multiplied by 100% to determine […]. To calculate the HCV replicon inhibition values, an average background value was obtained from the two wells containing the highest amount of HCV protease inhibitor at the end of the assay period. These numbers were similar to those obtained from naïve Huh-7 cells.
The background numbers were then subtracted from the average signal obtained from the control wells and this number was used as 100% activity. The individual signals in each of the compound test wells were then divided by the averaged control values after background subtraction and multiplied by 100% to determine percent activity. EC50 values for a protease inhibitor titration were calculated as the concentration which caused a 50% reduction in FRET or luciferase activity. The two numbers generated for the compound plate, percent cytoxicity and percent activity were used to determine compounds of interest for further analysis.

Row | Structure (SMILES) | IC50 ([1]; Table 1) | EC50 (HCV replicon cells; Table 1) | IC50 ([1]; Table 2) | EC50 (HCV replicon cells; Table 2)
1 | CNC(=O)c1c(-c2ccc(F)cc2)nc2ccc(-c3cc(C(=O)NC(C)(C)c4ccccc4)ccc3Cl)cn12 | 2 to 250 nM | 2 to 250 nM | – | –
2 | CNC(=O)c1c(-c2ccc(F)cc2)nn2ccc(-c3cc(C(=O)NC4(c5cnccn5)CC4)c(OC)cc3C)c(F)c12 | – | 2 to 250 nM | – | –
3 | CNC(=O)c1c(-c2ccc(F)cc2)oc2ncc(-c3cccc(C(=O)NC(C)(C)c4ccccc4)c3)cc12 | 2 to 250 nM | 2 to 250 nM | – | –
4 | CNC(=O)c1c(-c2ccc(F)cc2)nc2ccc(-c3cc(C(=O)NC(C)(C)c4ccccc4)ccc3C)cn12 | 2 to 250 nM | 2 to 250 nM | – | –
5 | CCN(c1cn2nc(-c3ccc(F)cc3)c(C(=O)NC)c2cc1-c1cc(C(=O)NC2(c3ccc(F)cc3)CC2)ccc1C)S(C)(=O)=O | 2 to 250 nM | 2 to 250 nM | – | –
6 | CNC(=O)c1c(-c2ccc(F)cc2)nn2cc(N(CC3CC3)S(C)(=O)=O)c(-c3cccc(C(=O)NC(C)(C)c4ccccc4)c3)cc12 | 2 to 250 nM | 2 to 250 nM | – | –
7 | CNC(=O)c1c(-c2ccc(F)cc2)nn2ccc(-c3cccc(C(=O)NC(C)(C)c4ccccc4)c3)cc12 | 2 to 250 nM | 2 to 250 nM | – | –
8 | CNC(=O)c1c(-c2ccc(F)cc2)nn2cc(N(CCO)S(C)(=O)=O)c(-c3cccc(C(=O)NC(C)(C)c4ccccc4)c3)cc12 | 2 to 250 nM | 2 to 250 nM | – | –
9 | CNC(=O)c1c(-c2ccc(F)cc2)nn2ccc(-c3cc(C(=O)NC4(C(C)C)CC4)c(OC)cc3C)c(F)c12 | 2 to 250 nM | 2 to 250 nM | – | –
10 | CNC(=O)c1c(-c2ccc(F)cc2)nn2ccc(NC(=O)OC(C)(C)C)cc12 | > 10000 nM | > 10000 nM | – | –
11 | CCN(c1cn2nc(-c3ccc(F)cc3)c(C(=O)NC)c2cc1C1CCCCC1)S(C)(=O)=O | 1000 to 10000 nM | 1000 to 10000 nM | – | –
12 | CNC(=O)c1c(-c2ccccc2)nn2cc(-c3ccccc3CO)ccc12 | > 10000 nM | > 10000 nM | – | –
13 | CNC(=O)c1c(-c2ccc(F)cc2)nc2ccc(-c3cc(C(=O)NC4(c5ccccn5)CC4)ccc3C)cn12 | 2 to 250 nM | 2 to 250 nM | – | –
14 | CNC(=O)c1c(-c2ccc(F)cc2)nn2ccc(-c3cc(C(=O)NC4(c5ccccc5)CC4)ccc3C)cc12 [drawing 173] | – | – | 4.75 nM | 2.37 nM
15 | CNC(=O)c1c(-c2ccc(F)cc2)nc2ccc(-c3cccc(C(=O)NC(C)(C)c4ccccc4)c3)cn12 | 2 to 250 nM | 2 to 250 nM | – | –
16 | CNC(=O)c1c(-c2ccc(F)cc2)nn2cc(N(CCO)S(C)(=O)=O)c(-c3cc(C(=O)NC4(c5ccccc5)CC4)ccc3C)cc12 | 2 to 250 nM | – | – | –
17 | CNC(=O)c1c(-c2ccc(F)cc2)nn2ccc(-c3cc(C(=O)NC4(c5ccccc5)CC4)c(OC)cc3C)c(F)c12 [drawing 134] | 2 to 250 nM | 2 to 250 nM | – | –
